Experimental data as given in US20090291968A1, “SUBSTITUTED INDAZOLE DERIVATIVES, THEIR MANUFACTURE AND USE AS PHARMACEUTICAL AGENTS” (priority 2006, published 2009).

Columns and labels:
[1] = molecular target: T1, Aurora A kinase (Homo sapiens, UniProt O14965); assay: IC50 determination for inhibitors of Aurora A (ELISA-type kinase assay, GST-Histone H3 substrate); assay type: biochemical; settings: mutant Aurora A kinase, 30 μM ATP, 40 minutes, read-out: IC50 Aurora A kinase inhibition
T1 sequence (O14965 1-403 T288D): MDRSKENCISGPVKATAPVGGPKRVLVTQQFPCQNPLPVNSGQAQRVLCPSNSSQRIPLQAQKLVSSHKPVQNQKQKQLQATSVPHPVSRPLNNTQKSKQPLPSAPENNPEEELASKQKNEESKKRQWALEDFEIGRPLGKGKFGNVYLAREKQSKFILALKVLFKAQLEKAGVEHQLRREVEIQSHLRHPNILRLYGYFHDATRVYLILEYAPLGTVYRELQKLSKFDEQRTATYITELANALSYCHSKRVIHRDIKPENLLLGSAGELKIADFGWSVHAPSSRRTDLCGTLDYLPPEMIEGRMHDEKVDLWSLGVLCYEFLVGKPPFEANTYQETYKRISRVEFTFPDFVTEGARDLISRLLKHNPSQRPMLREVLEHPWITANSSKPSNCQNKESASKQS
Method: Aurora A is a serine threonine kinase involved in spindle assembly and chromosome segregation.
The assay is a typically ELISA-type assay where substrate (GST-Histone H3) is coupled to the assay-plate and is phosphorylated by the kinase. Phosphorylation is detected by a mouse anti-Phosphopeptid mAb and an HRP-labeled anti-mouse pAb. The assay is validated for IC50-determination.
Kinase activities were measured by Enzyme-Linked Immunosorbent Assay (ELISA): Maxisorp 384-well plates (Nunc) were coated with recombinant fusion protein comprising residues 1-15 of HistoneH3 fused to the N-terminus of Glutathione-S-Transferase. Plates were then blocked with a solution of 1 mg/mL I-block (Tropix cat# T2015—highly purified form of casein) in phosphate-buffered saline. Kinase reactions were carried out in the wells of the ELISA plate by combining an appropriate amount of mutant Aurora A kinase with test compound and 30 μM ATP. The reaction buffer was 10× Kinase Buffer (Cell Signaling cat #9802) supplemented with 1 μg/mL I-block. Reactions were stopped after 40 minutes by addition of 25 mM EDTA. After washing, substrate phosphorylation was detected by addition of anti-phospho-Histone H3 (Ser 10) 6G3 mAb (Cell Signaling cat #9706) and sheep anti-mouse pAb-HRP (Amersham cat# NA931V), followed by colorimetric development with TMB (3,3′,5,5′-tetramethylbenzidine from Kirkegaard & Perry Laboratories). After readout of the absorbance, IC50 values were calculated using a non-linear curve fit (XLfit software (ID Business Solution Ltd., Guilford, Surrey, UK)).

[2] = tested on: HCT 116 cells; assay: CellTiter-Glo assay in HCT 116 cells (cell viability); assay type: cell-based; settings: 120 h; HCT 116 human colon carcinoma cells, 5 days incubation, CellTiter-Glo luminescence
Method: The CellTiter-Glo™ Luminescent Cell Viability Assay (Promega) is a homogeneous method of determining the number of viable cells in culture based on quantitation of the ATP present, which signals the presence of metabolically active cells.
HCT 116 cells (human colon carcinoma, ATCC-No. CCl-247) were cultivated in RPMI 1640 medium with GlutaMAX™ I (Invitrogen, Cat-No. 61870-010), 2,5% Fetal Calf Serum (FCS, Sigma Cat-No. F4135 (FBS)); 100 Units/ml penicillin/100 μg/ml streptomycin (=Pen/Strep from Invitrogen Cat. No. 15140). For the assay the cells were seeded in 384 well plates, 1000 cells per well, in the same medium. The next day the test compounds were added in various concentrations ranging from 30 μM to 0.0015 μM (10 concentrations, 1:3 diluted). After 5 days the CellTiter-Glo™ assay was done according to the instructions of the manufacturer (CellTiter-Glo™ Luminescent Cell Viability Assay, from Promega). In brief: the cell-plate was equilibrated to room temperature for approximately 30 minutes and than the CellTiter-Glo™ reagent was added. The contents were carefully mixed for 15 minutes to induce cell lysis. After 45 minutes the luminescent signal was measured in Victor 2, (scanning multiwell spectrophotometer, Wallac).
1st. Day: • Medium: RPMI 1640 with GlutaMAX™ I (Invitrogen, Cat-Nr. 61870), 5% FCS (Sigma Cat.-No. F4135), Pen/Strep (Invitrogen, Cat No. 15140). • HCT116 (ATCC-No. CCl-247): 1000 cells in 60 μl per well of 384 well plate (Greiner 781098, μClear-plate white) • After seeding incubate plates 24 h at 37° C., 5% CO2 2nd. Day: Induction (Treatment with Compounds, 10 Concentrations):
In order to achieve a final concentration of 30 μM as highest concentration 3.5 μl of 10 mM compound stock solution were added directly to 163 μl media. Then step e) of the dilution procedure described below, was followed.
In order to achieve the second highest to the lowest concentrations, a serial dilution with dilution steps of 1:3 was followed according to the procedure (a-e) as described here below: • a) for the second highest concentration add 10 μl of 10 mM stock solution of compound to 20 μl dimethylsulfoxide (DMSO) • b) dilute 8×1:3 (always 10 μl to 20 μl DMSO) in this DMSO dilution row (results in 9 wells with concentrations from 3333.3 μM to 0.51 μM) • c) dilute each concentration 1:47.6 (3.5 μl compound dilution to 163 μl media) • e) add 10 μl of every concentration to 60 μl media in the cell plate resulting in final concentration of DMSO: 0.3% in every well and resulting in 10 final concentration of compounds ranging from 30 μM to 0.0015 μM. • Each compound is tested in triplicate. • Incubate 120 h (5 days) at 37° C., 5% CO2
• Add 30 μl CellTiter-Glo™ Reagent (prepared from CellTiter-Glo™ Buffer and CellTiter-Glo™ Substrate (lyophilized) purchased from Promega) per well, • shake 15 minutes at room temperature • incubate further 45 minutes at room temperature without shaking
• Victor 2 scanning multiwell spectrophotometer (Wallac), Luminescence mode (0.5 sec/read, 477 nm) • Determine IC50 using a non-linear curve fit (XLfit software (ID Business Solution Ltd., Guilford, Surrey, UK))

Row | IC50 [1] | IC50 [2] | Structure (SMILES)
1 | 58 nM | 25 to 1500 nM | CCN1C(=O)C(C)(C)c2cc3nc(-c4n[nH]c5cc(/C=C/C6CCCCC6)ccc45)[nH]c3cc21 [Example 19, 2-[6-((E)-2-Cyclohexyl-vinyl)-1H-indazol-3-yl]-5-ethyl-7,7-dimethyl-5,7-dihydro-3H-imidazo[4,5-f]indol-6-one]
2 | 35 nM | 25 to 1500 nM | CCN1C(=O)C(C)(C)c2cc3nc(-c4n[nH]c5cc(/C=C/c6ccc(F)cc6)ccc45)[nH]c3cc21 [Example 6, 5-Ethyl-2-{6-[(E)-2-(4-fluoro-phenyl)-vinyl]-1H-indazol-3-yl}-7,7-dimethyl-5,7-dihydro-3H-imidazo[4,5-f]indol-6-one]
3 | 9 nM | 25 to 1500 nM | CCN1C(=O)C(C)(C)c2cc3nc(-c4n[nH]c5cc(C#Cc6ccccc6)ccc45)[nH]c3cc21 [Example 38, 5-Ethyl-7,7-dimethyl-2-(6-phenylethynyl-1H-indazol-3-yl)-5,7-dihydro-3H-imidazo[4,5-f]indol-6-one]
4 | 2 nM | 25 to 1500 nM | CCN1C(=O)C(C)(C)c2cc3nc(-c4n[nH]c5ccc(-c6nc[nH]n6)cc45)[nH]c3cc21 [Example 1, 5-Ethyl-7,7-dimethyl-2-[5-(1H-[1,2,4]triazol-3-yl)-1H-indazol-3-yl]-5,7-dihydro-3H-imidazo[4,5-f]indol-6-one]
5 | 6 nM | 25 to 1500 nM | CCN1C(=O)C(C)(C)c2cc3nc(-c4n[nH]c5ccc(-c6cccc(N(C)C)c6)cc45)[nH]c3cc21 [Example 29, 2-[5-(3-Dimethylamino-phenyl)-1H-indazol-3-yl]-5-ethyl-7,7-dimethyl-5,7-dihydro-3H-imidazo[4,5-f]indol-6-one]
6 | – | 328 nM | CCN1C(=O)C(C)(C)c2cc3nc(-c4n[nH]c5cc(-c6ccc(C(C)=O)cc6)ccc45)[nH]c3cc21 [Example 13, 2-[6-(4-Acetyl-phenyl)-1H-indazol-3-yl]-5-ethyl-7,7-dimethyl-5,7-dihydro-3H-imidazo[4,5-f]indol-6-one]
7 | 22 nM | 25 to 1500 nM | CCN1C(=O)C(C)(C)c2cc3nc(-c4n[nH]c5cc(-c6ccsc6)ccc45)[nH]c3cc21 [Example 4, 5-Ethyl-7,7-dimethyl-2-(6-thiophen-3-yl-1H-indazol-3-yl)-5,7-dihydro-3H-imidazo[4,5-f]indol-6-one]
8 | – | 25 to 1500 nM | CCN1C(=O)C(C)(C)c2cc3nc(-c4n[nH]c5cc(-c6cccs6)ccc45)[nH]c3cc21 [Example 16, 5-Ethyl-7,7-dimethyl-2-(6-thiophen-2-yl-1H-indazol-3-yl)-5,7-dihydro-3H-imidazo[4,5-f]indol-6-one]
9 | – | 25 to 1500 nM | CCN1C(=O)C(C)(C)c2cc3nc(-c4n[nH]c5ccc(-c6ccc(OC)nc6)cc45)[nH]c3cc21 [Example 24, 5-Ethyl-2-[5-(6-methoxy-pyridin-3-yl)-1H-indazol-3-yl]-7,7-dimethyl-5,7-dihydro-3H-imidazo[4,5-f]indol-6-one; compound with acetic acid]
10 | – | 562 nM | CCN1C(=O)C(C)(C)c2cc3nc(-c4n[nH]c5cc(-c6ccc7c(c6)OCO7)ccc45)[nH]c3cc21 [Example 20, 2-(6-Benzo[1,3]dioxol-5-yl-1H-indazol-3-yl)-5-ethyl-7,7-dimethyl-5,7-dihydro-3H-imidazo[4,5-f]indol-6-one]
11 | – | 25 to 1500 nM | CCN1C(=O)C(C)(C)c2cc3nc(-c4n[nH]c5cc(/C=C/c6ccc(OC)cc6)ccc45)[nH]c3cc21 [Example 10, 5-Ethyl-2-{6-[(E)-2-(4-methoxy-phenyl)-vinyl]-1H-indazol-3-yl}-7,7-dimethyl-5,7-dihydro-3H-imidazo[4,5-f]indol-6-one]
12 | 19 nM | – | CCN1C(=O)C(C)(C)c2cc3nc(-c4n[nH]c5cc(/C=C/c6ccc(C(F)(F)F)cc6)ccc45)[nH]c3cc21 [Example 11, 5-Ethyl-7,7-dimethyl-2-{6-[(E)-2-(4-trifluoromethyl-phenyl)-vinyl]-1H-indazol-3-yl}-5,7-dihydro-3H-imidazo[4,5-f]indol-6-one]
13 | – | 25 to 1500 nM | CCN1C(=O)C(C)(C)c2cc3nc(-c4n[nH]c5cc(-c6ccccn6)ccc45)[nH]c3cc21 [Example 33, 5-Ethyl-7,7-dimethyl-2-(6-pyridin-2-yl-1H-indazol-3-yl)-5,7-dihydro-3H-imidazo[4,5-f]indol-6-one]
14 | – | 25 to 1500 nM | CCN1C(=O)C(C)(C)c2cc3nc(-c4n[nH]c5cc(-c6nc[nH]n6)ccc45)[nH]c3cc21 [Example 2, 5-Ethyl-7,7-dimethyl-2-[6-(1H-[1,2,4]triazol-3-yl)-1H-indazol-3-yl]-5,7-dihydro-3H-imidazo[4,5-f]indol-6-one]
15 | – | 25 to 1500 nM | CCN1C(=O)C(C)(C)c2cc3nc(-c4n[nH]c5cc(-c6cncnc6)ccc45)[nH]c3cc21 [Example 32, 5-Ethyl-7,7-dimethyl-2-(6-pyrimidin-5-yl-1H-indazol-3-yl)-5,7-dihydro-3H-imidazo[4,5-f]indol-6-one]
16 | – | 25 to 1500 nM | CCN1C(=O)C(C)(C)c2cc3nc(-c4n[nH]c5cc(-c6cccc(N(C)C)c6)ccc45)[nH]c3cc21 [Example 21, 2-[6-(3-Dimethylamino-phenyl)-1H-indazol-3-yl]-5-ethyl-7,7-dimethyl-5,7-dihydro-3H-imidazo[4,5-f]indol-6-one]
